Experimental data published in the NIST ThermoML archive (doi:10.1021/je2010837).

Conditions: 101.33 kPa, Liquid; for viscosity: Concentric cylinders viscometry; for electrical conductivity: Direct current cell with electrodes

CCCC[N+]1(C)CCCC1.O=S(=O)([N-]S(=O)(=O)C(F)(F)F)C(F)(F)F
Conditions | electrical conductivity [S/m] | mass density [kg/m3] | viscosity [mPa·s]
293.15 K | – | 1399 | –
298.15 K | 0.277 | 1394.57 | 76.73
299.15 K | 0.288 | – | –
300.15 K | 0.3 | – | –
301.15 K | 0.313 | – | –
302.15 K | 0.327 | – | –
303.15 K | 0.34 | 1390.02 | 61.67
304.15 K | 0.354 | – | –
305.15 K | 0.368 | – | –
306.15 K | 0.383 | – | –
307.15 K | 0.398 | – | –
308.15 K | 0.412 | 1385.48 | 50.49
309.15 K | 0.427 | – | –
310.15 K | 0.443 | – | –
311.15 K | 0.459 | – | –
312.15 K | 0.475 | – | –
313.15 K | 0.492 | 1380.93 | 41.73
314.15 K | 0.509 | – | –
315.15 K | 0.527 | – | –
316.15 K | 0.544 | – | –
317.15 K | 0.562 | – | –
318.15 K | 0.58 | 1376.28 | 34.67
319.15 K | 0.598 | – | –
320.15 K | 0.616 | – | –
321.15 K | 0.635 | – | –
322.15 K | 0.655 | – | –
323.15 K | 0.673 | 1371.64 | 29.48
324.15 K | 0.694 | – | –
325.15 K | 0.713 | – | –
326.15 K | 0.733 | – | –
327.15 K | 0.754 | – | –
328.15 K | 0.775 | 1366.9 | 25.43
329.15 K | 0.795 | – | –
330.15 K | 0.816 | – | –
331.15 K | 0.839 | – | –
332.15 K | 0.86 | – | –
333.15 K | 0.884 | 1362.2 | 21.9
334.15 K | 0.911 | – | –
335.15 K | 0.938 | – | –
336.15 K | 0.965 | – | –
337.15 K | 0.993 | – | –
338.15 K | 1.02 | 1357.35 | 19.16
339.15 K | 1.05 | – | –
340.15 K | 1.08 | – | –
341.15 K | 1.11 | – | –
342.15 K | 1.13 | – | –
343.15 K | 1.17 | 1352.44 | 16.82
344.15 K | 1.2 | – | –
345.15 K | 1.23 | – | –
346.15 K | 1.26 | – | –
347.15 K | 1.29 | – | –
348.15 K | 1.32 | 1347.48 | 14.8
349.15 K | 1.36 | – | –
350.15 K | 1.4 | – | –
351.15 K | 1.43 | – | –
352.15 K | 1.46 | – | –
353.15 K | 1.49 | 1342.48 | 13.24

CCCC[n+]1ccn(C)c1.O=S(=O)([N-]S(=O)(=O)C(F)(F)F)C(F)(F)F
Conditions | electrical conductivity [S/m] | mass density [kg/m3] | viscosity [mPa·s]
293.15 K | – | 1439.27 | –
298.15 K | 0.402 | 1434.3 | 50.05
299.15 K | 0.417 | – | –
300.15 K | 0.435 | – | –
301.15 K | 0.453 | – | –
302.15 K | 0.47 | – | –
303.15 K | 0.488 | 1429.4 | 41.24
304.15 K | 0.506 | – | –
305.15 K | 0.524 | – | –
306.15 K | 0.543 | – | –
307.15 K | 0.562 | – | –
308.15 K | 0.581 | 1424.57 | 33.65
309.15 K | 0.602 | – | –
310.15 K | 0.622 | – | –
311.15 K | 0.643 | – | –
312.15 K | 0.664 | – | –
313.15 K | 0.684 | 1419.61 | 28.28
314.15 K | 0.706 | – | –
315.15 K | 0.729 | – | –
316.15 K | 0.751 | – | –
317.15 K | 0.773 | – | –
318.15 K | 0.795 | 1414.67 | 23.91
319.15 K | 0.82 | – | –
320.15 K | 0.842 | – | –
321.15 K | 0.866 | – | –
322.15 K | 0.891 | – | –
323.15 K | 0.921 | 1409.65 | 20.64
324.15 K | 0.949 | – | –
325.15 K | 0.983 | – | –
326.15 K | 1.01 | – | –
327.15 K | 1.04 | – | –
328.15 K | 1.07 | 1404.64 | 17.9
329.15 K | 1.1 | – | –
330.15 K | 1.14 | – | –
331.15 K | 1.17 | – | –
332.15 K | 1.21 | – | –
333.15 K | 1.24 | 1399.6 | 15.51
334.15 K | 1.27 | – | –
335.15 K | 1.31 | – | –
336.15 K | 1.34 | – | –
337.15 K | 1.38 | – | –
338.15 K | 1.41 | 1394.43 | 13.71
339.15 K | 1.45 | – | –
340.15 K | 1.48 | – | –
341.15 K | 1.52 | – | –
342.15 K | 1.55 | – | –
343.15 K | 1.59 | 1389.16 | 12.09
344.15 K | 1.63 | – | –
345.15 K | 1.67 | – | –
346.15 K | 1.71 | – | –
347.15 K | 1.74 | – | –
348.15 K | 1.78 | 1383.85 | 10.78
349.15 K | 1.82 | – | –
350.15 K | 1.86 | – | –
351.15 K | 1.9 | – | –
352.15 K | 1.94 | – | –
353.15 K | 1.98 | 1378.53 | 9.69
